Source: patent US20040192640A1, “Use of sucralfate for the treatment of cervical erosion” (priority 2004, published 2004)

Columns and labels:
NSAID-induced ulceration = conditions: cited from earlier work
cervical erosion = assay: Clinical test of topical intravaginal sucralfate gel for cervical erosion (colposcopic examination, signs and symptoms); format: in vivo, women; conditions: after six weeks of treatment (so in the source); both formulations together
Excerpt: Based on the observed colposcopic picture of the situation and on the seriousness of the possible accompanying inflammation state the patients under test have been classified according to a conventional classification of the cervical pathology, according to the following grade scheme.
Grade I: simple cervicitis; presence of mosaic-shaped lesions and ectopia; reduced leuconrhea and absence of dyspareunia (abnormal pain during sexual intercourse);
Grade II: cervicitis with extended erosion of the portio (30% of the surface); presence of altered epithelium; occasional blood discharge and occasional dyspareunia;
Grade III: cervicitis with extended erosion of the portio (50% of the surface); presence of ectopia; frequent blood discharge; leucorrhea and dyspareunia.
The 18 women, after final diagnosis, were divided into two test groups of nine patients each, in order to evaluate the effectiveness of the treatment according to the invention in two different formulations. The first formulation, continuing sucralfate at a concentration of 25% by weight as well as polycarbophil as a mucoadhesive/bioadhesive ingredient, corresponds to the preparation referred to above as Formulation 2, while the second formulation under test containing sucralfate at a concentration of 12.5% by weight as well as polycarbophil, corresponds to the Formulation 3. […]

duodenal ulcer = conditions: oral dose of 1 g four times daily, for 4-8 weeks; cited from earlier work

## β-D-fructofuranosyl-α-D-glucopyranoside octakis(hydrogen sulfate) aluminium complex [sucralfate]
NSAID-induced ulceration; duodenal localizations
  Effectiveness in NSAID-induced ulceration, duodenal localizations: effective
NSAID-induced ulceration; when gastric lesions are present
  Effect in NSAID-induced ulceration, gastric lesions: only a symptomatic and non-reparative effect
Cervical erosion
  Patients considered on complete recovery: 16 patients out of 18
Duodenal ulcer
  Clinical effectiveness (cases): 75 % of cases
